Data reported in ChEMBL document CHEMBL1147935, “Synthesis and antihypertensive activity of novel 3-benzyl-2-substituted-3H-[1,2,4]triazolo[5,1-b]quinazolin-9-ones” (2007).

Key:
Assay type in all cases: functional
Set-up in all cases: scale not given: the % may be the effect or the level left
Rattus norvegicus [1] = experiment: Antihypertensive activity in spontaneously hypertensive rat assessed as decrease in blood pressure at 5 mg/kg, po after 4 hrs by tail cuff method
Rattus norvegicus [2] = experiment: Antihypertensive activity in spontaneously hypertensive rat assessed as decrease in blood pressure at 5 mg/kg, po after 2 hrs by tail cuff method
Rattus norvegicus [3] = experiment: Antihypertensive activity in spontaneously hypertensive rat assessed as decrease in blood pressure at 5 mg/kg, po after 1 hr by tail cuff method
Rattus norvegicus [4] = experiment: Antihypertensive activity in spontaneously hypertensive rat assessed as decrease in blood pressure at 5 mg/kg, po after 5 hrs by tail cuff method
Rattus norvegicus [5] = experiment: Antihypertensive activity in spontaneously hypertensive rat assessed as decrease in blood pressure at 5 mg/kg, po after 3 hrs by tail cuff method

Structure (SMILES)	Activity (Rattus norvegicus [1]) [%]	Activity (Rattus norvegicus [2]) [%]	Activity (Rattus norvegicus [3]) [%]	Activity (Rattus norvegicus [4]) [%]	Activity (Rattus norvegicus [5]) [%]
Cc1nn2c(=O)c3ccccc3nc2n1Cc1ccccc1	38.8	31.5	15.3	15.3	33.5
O=c1c2ccccc2nc2n(Cc3ccccc3)c(CCl)nn12	17.2	11.9	3.7	6.7	15
O=c1c2ccccc2nc2n(Cc3ccccc3)c(CN3CCOCC3)nn12	25.6	10	8.6	19.4	21.7
O=c1c2ccccc2nc2n(Cc3ccccc3)c(-c3ccccc3)nn12	13.1	7.1	6.1	14.1	10.1
Cc1ccc(-c2nn3c(=O)c4ccccc4nc3n2Cc2ccccc2)cc1	11.6	5.6	4.7	16.2	9.1
CCOc1ccc(-c2nn3c(=O)c4ccccc4nc3n2Cc2ccccc2)cc1	13.6	7.6	6.5	16.5	9.52
O=c1c2ccccc2nc2n(Cc3ccccc3)cnn12	20.8	7.3	5.4	19.8	17.3
CCCc1nn2c(=O)c3ccccc3nc2n1Cc1ccccc1	17	20.5	13.4	15.7	19
COc1ccc(-c2nn3c(=O)c4ccccc4nc3n2Cc2ccccc2)cc1	12.6	9.7	5.9	15.4	9.6
O=c1c2ccccc2nc2n(Cc3ccccc3)c(CN3CCCCC3)nn12	16.1	5.1	3.6	13.1	9.1
COc1cc2nc(N3CCN(C(=O)c4ccco4)CC3)nc(N)c2cc1OC [PRAZOSIN]	19.6	24.6	30.2	12.9	18
